Experimental data from ChEMBL document CHEMBL1201862, “PubChem BioAssay data set” (2004).
Active and inactive are the calls of the source.

How the values were obtained:
[1] = target: FAD-linked sulfhydryl oxidase ALR (Homo sapiens, UniProt P55789); assay: ALR-catalysed DTT oxidation blockers – biochemical, H2O2 detection, luminescence, cherry-pick, dose response (AID 493248)
[2] = target: Cytochrome P450 2D6 (Homo sapiens, UniProt P10635);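 further: CYP2D6 member of a cytochrome P450 panel assay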
Cytochrome P450 2D6, sequence (P10635 whole entry): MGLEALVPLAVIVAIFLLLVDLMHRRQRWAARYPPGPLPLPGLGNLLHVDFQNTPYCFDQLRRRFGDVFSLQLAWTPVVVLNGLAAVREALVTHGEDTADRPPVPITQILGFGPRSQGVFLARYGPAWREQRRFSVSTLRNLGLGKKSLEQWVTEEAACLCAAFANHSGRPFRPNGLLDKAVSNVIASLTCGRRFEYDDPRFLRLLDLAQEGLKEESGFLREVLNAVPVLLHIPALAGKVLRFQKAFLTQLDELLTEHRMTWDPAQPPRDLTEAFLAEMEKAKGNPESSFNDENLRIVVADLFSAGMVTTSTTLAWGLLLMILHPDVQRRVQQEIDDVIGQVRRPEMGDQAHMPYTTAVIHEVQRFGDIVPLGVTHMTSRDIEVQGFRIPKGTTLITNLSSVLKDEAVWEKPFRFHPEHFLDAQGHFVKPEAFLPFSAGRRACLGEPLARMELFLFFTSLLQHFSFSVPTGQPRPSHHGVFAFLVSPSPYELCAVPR

[3] = target: Cytochrome P450 2C9 (Homo sapiens, UniProt P11712)
Cytochrome P450 2C9, sequence (P11712 whole entry): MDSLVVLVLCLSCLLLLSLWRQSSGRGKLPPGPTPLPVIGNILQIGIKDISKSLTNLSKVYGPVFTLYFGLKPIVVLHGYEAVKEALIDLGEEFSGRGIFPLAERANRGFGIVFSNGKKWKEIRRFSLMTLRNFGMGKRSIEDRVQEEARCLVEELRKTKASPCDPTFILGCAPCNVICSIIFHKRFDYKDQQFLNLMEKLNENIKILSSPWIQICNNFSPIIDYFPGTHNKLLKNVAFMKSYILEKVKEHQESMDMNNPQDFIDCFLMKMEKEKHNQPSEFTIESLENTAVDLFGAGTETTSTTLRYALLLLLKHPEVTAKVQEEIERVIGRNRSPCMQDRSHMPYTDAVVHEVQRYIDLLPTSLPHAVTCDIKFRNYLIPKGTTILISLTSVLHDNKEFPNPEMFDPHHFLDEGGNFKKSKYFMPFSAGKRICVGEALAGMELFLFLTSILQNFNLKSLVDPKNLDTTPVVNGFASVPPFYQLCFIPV

[4] = test system: Streptococcus sp. 'group A'; assay: Streptococcus pyogenes SK(-)GAS viability under kanamycin – luminescence, BacTiterGlo, confirmation, counter-screen for streptokinase expression inhibitor project, dose response (AID 1900); format: functional, organism-based
[5] = target: T1, Streptokinase A (Streptococcus pyogenes serotype M1, UniProt P10520); assay: viability-normalized secreted streptokinase activity reduction – plasminogen activation absorbance, OD405, dose response (AID 1914); format: functional, Streptococcus pyogenes M1 GAS;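 further: secreted streptokinase activity via plasminogen activation per viability signal from cell pellet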
T1 sequence (P10520 whole entry): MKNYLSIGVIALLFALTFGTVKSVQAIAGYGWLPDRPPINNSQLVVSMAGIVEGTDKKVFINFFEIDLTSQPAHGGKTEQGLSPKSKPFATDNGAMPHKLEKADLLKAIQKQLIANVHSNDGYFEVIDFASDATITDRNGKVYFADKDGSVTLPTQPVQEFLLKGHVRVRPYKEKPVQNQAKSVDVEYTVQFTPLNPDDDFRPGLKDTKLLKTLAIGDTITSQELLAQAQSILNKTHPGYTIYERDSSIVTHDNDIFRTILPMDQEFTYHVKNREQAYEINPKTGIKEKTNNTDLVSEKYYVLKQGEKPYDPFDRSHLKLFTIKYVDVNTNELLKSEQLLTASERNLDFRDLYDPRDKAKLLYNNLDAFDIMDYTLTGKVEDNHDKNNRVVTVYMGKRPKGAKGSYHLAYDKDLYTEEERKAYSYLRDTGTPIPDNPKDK

[6] = test system: Streptococcus; assay: GAS UMAA2166 growth inhibition – luminescence, BacTiterGlo, counter-screen for streptokinase expression inhibitor project, dose response (AID 1915); format: functional, organism-based;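 further: potency for reduction of bacterial viability or growth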
[7] = target: Cytochrome P450 3A4 (Homo sapiens, UniProt P08684);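 further: CYP3A4 tested as one member of a cytochrome P450 panel screen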
Cytochrome P450 3A4, sequence (P08684 whole entry): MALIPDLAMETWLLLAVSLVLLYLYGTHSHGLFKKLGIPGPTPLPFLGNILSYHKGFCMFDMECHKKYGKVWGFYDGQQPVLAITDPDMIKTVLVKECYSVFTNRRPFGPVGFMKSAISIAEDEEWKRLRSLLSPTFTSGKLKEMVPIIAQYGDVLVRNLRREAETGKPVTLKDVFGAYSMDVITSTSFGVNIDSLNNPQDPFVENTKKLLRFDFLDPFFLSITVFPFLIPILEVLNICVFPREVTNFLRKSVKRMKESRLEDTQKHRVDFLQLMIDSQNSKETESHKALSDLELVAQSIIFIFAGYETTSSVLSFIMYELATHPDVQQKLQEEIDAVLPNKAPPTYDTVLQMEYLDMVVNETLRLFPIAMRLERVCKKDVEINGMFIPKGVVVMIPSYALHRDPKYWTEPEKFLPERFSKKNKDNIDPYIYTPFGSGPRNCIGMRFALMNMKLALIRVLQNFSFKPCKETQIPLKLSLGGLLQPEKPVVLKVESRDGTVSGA

[8] = target: T2, Corticotropin-releasing factor receptor 2/Corticotropin-releasing factor-binding protein (Homo sapiens, UniProt P24387+Q13324); assay: Dose Response confirmation of uHTS hits for small molecule antagonists of the CRF-binding protein and CRF-R2 receptor complex.; format: functional; details: read-out: IC50_Mean
T2 sequence (Q13324 whole entry): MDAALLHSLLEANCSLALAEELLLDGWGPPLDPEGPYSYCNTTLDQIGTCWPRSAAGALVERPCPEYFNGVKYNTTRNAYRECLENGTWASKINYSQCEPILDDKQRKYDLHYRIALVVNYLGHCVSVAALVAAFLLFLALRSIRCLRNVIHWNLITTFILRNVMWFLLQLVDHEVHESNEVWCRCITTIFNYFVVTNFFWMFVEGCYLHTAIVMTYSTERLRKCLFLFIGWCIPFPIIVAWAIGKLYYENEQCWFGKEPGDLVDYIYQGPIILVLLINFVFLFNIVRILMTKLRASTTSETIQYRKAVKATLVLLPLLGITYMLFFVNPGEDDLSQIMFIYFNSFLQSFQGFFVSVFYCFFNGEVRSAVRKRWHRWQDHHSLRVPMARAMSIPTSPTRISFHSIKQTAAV
T2 sequence (P24387 whole entry): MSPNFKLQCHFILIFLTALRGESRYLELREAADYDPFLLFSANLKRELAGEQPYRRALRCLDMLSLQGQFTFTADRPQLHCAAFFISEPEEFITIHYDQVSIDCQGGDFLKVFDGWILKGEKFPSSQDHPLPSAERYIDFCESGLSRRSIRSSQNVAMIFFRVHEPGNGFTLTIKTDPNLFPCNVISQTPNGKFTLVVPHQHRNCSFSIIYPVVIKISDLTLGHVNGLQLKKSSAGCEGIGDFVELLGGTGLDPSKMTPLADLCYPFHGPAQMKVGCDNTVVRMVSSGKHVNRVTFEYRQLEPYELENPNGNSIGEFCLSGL

[9] = target: T2, Corticotropin-releasing factor receptor 2/Corticotropin-releasing factor-binding protein; assay: activators of CRF receptor 2 with binding protein – uHTS hits, confirmation (AID 602473); format: functional; details: read-out: EC50_Mean
[10] = target: Paired box protein Pax-8 (Homo sapiens, UniProt Q06710); assay: PAX8 transcriptional activity inhibition in RMG-I – RMG-I cells, luciferase, cherry-pick, dose response (AID 687027); format: functional, cell-based;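 further: luciferase reporter driven by Pax8 target thyroperoxidase promoter measured by SteadyGlo luminescence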
Paired box protein Pax-8, sequence (Q06710 whole entry): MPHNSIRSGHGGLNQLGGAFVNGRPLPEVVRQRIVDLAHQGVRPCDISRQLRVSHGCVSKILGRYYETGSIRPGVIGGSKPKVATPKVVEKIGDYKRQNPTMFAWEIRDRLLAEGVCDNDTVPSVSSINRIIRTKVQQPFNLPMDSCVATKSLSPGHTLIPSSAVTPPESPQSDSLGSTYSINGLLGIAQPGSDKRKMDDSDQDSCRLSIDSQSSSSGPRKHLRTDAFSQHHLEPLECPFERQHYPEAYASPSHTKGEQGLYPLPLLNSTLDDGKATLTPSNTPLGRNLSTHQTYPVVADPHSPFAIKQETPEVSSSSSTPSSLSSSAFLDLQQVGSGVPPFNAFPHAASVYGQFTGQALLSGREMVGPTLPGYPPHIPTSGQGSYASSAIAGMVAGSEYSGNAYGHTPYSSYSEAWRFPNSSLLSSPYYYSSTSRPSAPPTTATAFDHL

[11] = target: T3, Cytochrome P450 1A2 (Homo sapiens, UniProt P05177);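 further: PubChem cytochrome P450 panel assay, CYP1A2 panel member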
T3 sequence (P05177 whole entry): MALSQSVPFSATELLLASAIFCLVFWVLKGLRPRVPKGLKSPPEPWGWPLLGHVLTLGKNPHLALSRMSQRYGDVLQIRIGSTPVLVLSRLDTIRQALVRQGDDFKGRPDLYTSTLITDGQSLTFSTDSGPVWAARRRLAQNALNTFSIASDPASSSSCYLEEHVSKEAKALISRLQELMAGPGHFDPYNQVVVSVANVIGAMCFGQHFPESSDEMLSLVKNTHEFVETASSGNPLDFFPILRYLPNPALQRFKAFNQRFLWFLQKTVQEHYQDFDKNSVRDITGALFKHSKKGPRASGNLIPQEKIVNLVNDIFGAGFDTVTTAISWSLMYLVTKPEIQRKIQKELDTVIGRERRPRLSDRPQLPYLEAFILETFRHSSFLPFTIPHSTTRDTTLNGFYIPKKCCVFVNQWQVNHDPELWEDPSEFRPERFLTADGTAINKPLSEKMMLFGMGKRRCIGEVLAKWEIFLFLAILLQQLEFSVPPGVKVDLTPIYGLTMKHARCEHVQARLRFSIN

FAD-linked sulfhydryl oxidase ALR, sequence (P55789 whole entry): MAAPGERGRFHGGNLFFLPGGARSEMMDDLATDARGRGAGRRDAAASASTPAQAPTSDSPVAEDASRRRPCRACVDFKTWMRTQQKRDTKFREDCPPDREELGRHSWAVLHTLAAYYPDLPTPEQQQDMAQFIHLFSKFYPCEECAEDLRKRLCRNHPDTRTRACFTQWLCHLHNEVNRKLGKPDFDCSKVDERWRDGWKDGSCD

Which AC50 [1] does the source give for Cc1ccccc1N=Nc1c(N)n[nH]c1N here?
Its AC50 is 5.72 µM (active).

With Cc1cccc(-n2c(-c3ccoc3C)n[nH]c2=S)c1 as the compound, how does the AC50 [1] read?
Its AC50 is 7.34 µM (active).

What does the source list for N#Cc1cccc(-c2ccc3ncnc(NCc4cccs4)c3c2)c1?
AC50 [2]: 12.6 µM (inconclusive); AC50 [3]: 0.501 µM (inconclusive)

For Oc1cccc2ccc(/C=C/c3c(F)cccc3Cl)nc12, which EC50 [4] is on record?
The EC50 was 0.589 µM (active).

And the EC50 [5]?
Its EC50 is > 150 µM (not active).

What about the EC50 [6] of the same compound?
Its EC50 is 32.2 µM (active).

How did the AC50 [7] turn out when CCC1=C(C[C@H]2NCCc3cc(OC)c(OC)cc32)C[C@H]2c3ccccc3CCN2C1 was run?
Its AC50 is 3.16 µM (inconclusive).

What about the AC50 [3] of the same compound?
Its AC50 is 3.16 µM (inconclusive).

What does the source list for Cc1nn(CC(O)CN2c3ccccc3Sc3ccccc32)c(C)c1Br (centres undefined)?
EC50 [4]: 3.47 µM (active); EC50 [5]: 8 µM (active); EC50 [6]: 21.4 µM (active)

Which IC50 [8] does the source give for COc1ccccc1-n1cnnc1SCC(=O)NCc1cccs1 here?
Its IC50 is > 47.1 µM (inactive).

And the EC50 [9]?
Its EC50 is > 53 µM (inactive).

With CNS(=O)(=O)c1cnccc1N1CCN(c2cccc(C)c2)CC1 as the compound, how does the AC50 [1] read?
The AC50 was < 0.005 µM (active).

CC(NC(=O)CCCCCNC(=O)N1CCn2c1nc1ccccc12)c1ccccc1 (centres undefined) was tested. Which AC50 [1] did it give?
The AC50 was 4.51 µM (active).

What does the source list for CSc1nc2n(n1)C(c1cccc(F)c1)C(C(=O)Nc1ccc(C)cc1C)=C(C)N2 (centres undefined)?
AC50 [7]: 0.708 µM (inconclusive); AC50 [3]: 3.98 µM (inconclusive)

Which results are given for Cc1ccc(-n2nnnc2SCC(=O)Nc2cccnc2Cl)cc1?
IC50 [8]: > 47.1 µM (inactive); EC50 [9]: > 53 µM (inactive)

Which EC50 [4] does the source give for CCOC(=O)c1cnn(-c2nc(-c3cccc(F)c3)cs2)c1C(F)(F)F here?
The EC50 was 9.99 µM (active).

And the EC50 [5]?
The EC50 was 20.8 µM (active).

What about the EC50 [6] of the same compound?
Its EC50 is 17.6 µM (active).

Which AC50 [10] does the source give for C[C@@H]1CN([C@H](C)CO)C(=O)c2cc(NS(=O)(=O)c3ccc(Cl)cc3)ccc2O[C@@H](C)CCCCO[C@H]1CN(C)C(=O)C1CCCCC1 here?
Its AC50 is 15.8 µM (active).

How did the AC50 [2] turn out when N#Cc1ccc(CN2CC[C@@]3(CCCN(C(=O)c4ccncc4)C3)C2)cc1 was run?
Its AC50 is 20 µM (inconclusive).

And the AC50 [11]?
Its AC50 is 39.8 µM (inconclusive).

What about the AC50 [3] of the same compound?
The AC50 was 31.6 µM (inconclusive).

With Cc1cccc(OCc2nnc(S)n2-c2ccccc2)c1 as the compound, how does the AC50 [1] read?
The AC50 was 1.6 µM (active).

CCOC(=O)C1=C(N)Oc2ccc3ccccc3c2C1c1ccc(O)cc1 (centres undefined) was tested. Which EC50 [4] did it give?
Its EC50 is 8.94 µM (active).

What about the EC50 [5] of the same compound?
Its EC50 is 11.5 µM (active).

What about the EC50 [6] of the same compound?
The EC50 was > 150 µM (not active).

For COc1ccc(CC(=O)N/N=C(\C)CC(=O)Nc2ccc(N(C)C)cc2)cc1, which AC50 [1] is on record?
The AC50 was 2.04 µM (active).

With CNc1ccc(C2(O)C(=O)c3ccccc3C2=O)cc1 as the compound, how does the AC50 [1] read?
Its AC50 is 0.664 µM (active).

How did the AC50 [2] turn out when C[N+](C)(C)CCC(=O)c1cccc2ccccc12 was run?
The AC50 was 10 µM (inconclusive).

And the AC50 [7]?
Its AC50 is 0.2 µM (inconclusive).

What about the AC50 [3] of the same compound?
The AC50 was 12.6 µM (inconclusive).

How did the AC50 [1] turn out when O=C(Cc1ccccc1)NNc1c2ccccc2nc2ccccc12 was run?
Its AC50 is 2.43 µM (active).

With COC(=O)c1cnn(C(=O)c2ccccc2Br)c1N as the compound, how does the AC50 [3] read?
The AC50 was 22.4 µM (inconclusive).

How did the EC50 [4] turn out when Cc1ccccc1NC(=O)C(=O)NC(C)CCc1ccccc1 (centres undefined) was run?
The EC50 was > 150 µM (not active).

And the EC50 [5]?
Its EC50 is > 150 µM (not active).

What about the EC50 [6] of the same compound?
The EC50 was > 150 µM (not active).

With Cc1nnc(O)c2c(NC(=O)CSc3nnnn3-c3ccccc3)oc(C)c12 as the compound, how does the EC50 [4] read?
Its EC50 is > 150 µM (not active).

What about the EC50 [5] of the same compound?
The EC50 was > 150 µM (not active).

What about the EC50 [6] of the same compound?
Its EC50 is > 150 µM (not active).
